Measured values taken from US12036224B2, “Formulations, methods, kits, and dosage forms for treating atopic dermatitis and for improved stability of an active pharmaceutical ingredient” (Libertas Bio, Inc., priority 2017, dated 2024).
Values after ≈ are worked out from the molar mass of the structure shown. “Also recorded” adds a separate entry of the source.

Assays:
[1] = system: ibrutinib-resistant cell lines; assay: Pre-clinical proliferation in ibrutinib-resistant cell lines; type: cell-based
From the text: (§1) A formulation of the disclosure comprising 2-(1-(4-((4-(4-hydroxypiperidin-1-yl)phenyl)amino)-5-oxo-5,6-dihydropyrimido[4,5-d]pyridazin-2-yl)piperidin-4-yl)acetonitrile comprises a potent inhibitor of Spleen Tyrosine Kinase (SYK) and Janus Kinases (JAK).

[2] = system: patients with solid tumors and hematologic malignancies; assay: Phase 1/2 trial in solid tumors and hematologic malignancies: safety and tolerability; type: in vivo, human
Method: (§2) Methods: Phase 1/2 clinical trial in patients with solid tumors and hematologic malignancies evaluates escalating oral doses of the formulation disclosed herein at 10, 20, 30, 40, 50, 75 and 100 mg BID and 80 and 120 mg QD mg (NCT02440685). Phase 1 allows patients with solid tumors or hematologic malignancies; Phase 2 allows only patients with diffuse large B-Cell lymphoma (DLBCL), follicular lymphoma (FL) or mantle cell lymphoma (MCL). Endpoints include safety, tolerability, pharmacokinetics, serum markers of inflammation, and response using RECIST or Lugano Classification System, […]

[3] = Phase 1b study in atopic dermatitis: pharmacokinetics; type: in vivo, human
Method: Upon signing the informed consent, the each subject underwent screening assessments from Day −30 to Day −1 prior to study drug administration. On Day 1 (baseline), eligible subjects were randomized, subjected to the Day 1/baseline assessments and received Compound 1 at 20, 40 or 80 mg or placebo, dependent on cohort and randomization schedule. At this visit, PK/PD samples were collected at predose and up to 8 hours (or up to 12 hours at selected sites). Subjects were monitored in clinic for 2 hours following the first study drug administration. Subjects returned to the clinic on Day 2 for PK and PD samples (24 hours post dose).
Pre-dose PK and PD samples were collected on Days 8 and 29 (last day of treatment). On Day 15, PK/PD samples were also collected at pre-dose and up to 8 hours post-dose and subjects returned on Day 16 for PK and PD samples (24 hours post dose). Subjects came in for additional safety assessments on Days 8, 22 and 29, as well as at the end of the follow up period (Day 43). Disease assessments were conducted on Days 1, Day 15 and Day 29.
Assessment of PK variables: The following PK parameters for Compound 1 were derived from the concentration-time data of Compound 1 after the first and Day 15 dose administration in the fasted state, as data allowed: Cmax, tmax, AUC0-∞, AUC0-t, AUC0-24, λz, t1/2, CL/F and Vd/F

[4] = system: lesional skin of subjects with atopic dermatitis; assay: Phase 1b study in atopic dermatitis: skin biopsy biomarkers; type: in vivo, human
From the text: Assessment of Pharmacodynamics/Biomarker Parameters: • 1. Change from baseline in inflammatory markers in serum (including immune markers and CRP) • 2. Change from baseline in molecular skin biomarkers (inflammatory and barrier) • 3. Change from baseline in cellular markers (including reduction in inflammatory cells) • 4. Change from baseline in epidermal thickness and barrier markers in skin biopsies. Assessments of Efficacy Investigator's Global Assessment
For each subject, a maximum of four skin biopsies were collected during this study. Two punch biopsy samples (one from lesional skin and one from non-lesional skin) were collected at Day 1 and one punch biopsy was collected from the same lesional skin (outside the scar of the previous biopsies) at Day 15 (optional for subjects) and Day 29.
A panel of biological markers were assessed to determine the effect of Compound 1 on the disease process. These may include, but are not limited to: • Serum cytokines and inflammatory markers • Molecular skin biomarkers (inflammatory and barrier) • Circulating and tissue resident cellular phenotyping • Epidermal thickness and barrier markers from skin biopsies • Other biomarkers related autoimmune or inflammatory diseases Results: […]

[5] = system: JAK/STAT pathway in T cells (primary); assay: Inhibition of JAK/STAT pathway in T cells stimulated with various cytokines; type: cell-based; conditions: T cells (primary) stimulated by various cytokines
Method: FIG. 7A is a graph of the % of subjects to achieve EASI50 over time (Day 1 to Day 29) for a placebo and Compound 1 in the doses of 20 mg, 40 mg and 80 mg. FIG. 7B is a graph of the % of subjects to achieve EASI75 over time (Day 1 to Day 29) for a placebo and Compound 1 in the doses of 20 mg, 40 mg and 80 mg. […] FIG. 8A is a graph of the % CFB (percentage change from baseline) for EASI (decrease) for the placebo and Compound 1 in the doses of 20 mg, 40 mg and 80 mg. FIG. 8B is a graph of the % CFB for BSA (body surface area) (decrease) for the placebo and Compound 1 in the doses of 20 mg, 40 mg and 80 mg. FIG. 8C is a graph of the % CFB for IGA 0-1 (Investigator's Global Assessment) for the placebo and Compound 1 in the doses of 20 mg, 40 mg and 80 mg. FIG. 9 is a graph of day 15 plasma concentration for Compound 1 in the doses of 20 mg, 40 mg and 80 mg. […] In FIG. 10, the IC50 values were determined in biochemical kinase assays using purified partial or full length enzymes. FIG. 11 is a chart showing inhibition of Compound 1 in JAK/STAT pathway in T cells stimulated with various cytokines.

[6] = system: patients with solid tumors and hematologic malignancies; assay: Phase 1/2 trial in solid tumors and hematologic malignancies: response and serum markers; type: in vivo, human
Method: as §2

[7] = HCl pH dependent solubility profile study; type: physicochemical; conditions: thermodynamic from solid
From the text: (§3) Analytical studies for 2-(1-(4-((4-(4-hydroxypiperidin-1-yl)phenyl)amino)-5-oxo-5,6-dihydropyrimido[4,5-d]pyridazin-2-yl)piperidin-4-yl)acetonitrile are provided below in Tables 1-3: Table 1 provides the results of an HCl pH dependent solubility profile study, Table 2 provides the results of an HCl solubility profile in organic solvents, and Table 3 provides the results of an HCl stress study.

[8] = system: rodent xenograft models of NHL and other hematologic malignancies; assay: Rodent xenograft models of NHL and other hematologic malignancies; type: in vivo
From the text: as §1

[9] = HCl solubility profile in organic solvents; type: physicochemical; conditions: organic solvent or mixture
From the text: as §3

[10] = 10 mg-100 mg BID and 80-120 mg QD
[11] = human, plasma, oral, day 15, 20, 40 and 80 mg

N#CCC1CCN(c2nc(Nc3ccc(N4CCC(O)CC4)cc3)c3c(=O)[nH]ncc3n2)CC1 [Compound 1, 2-(1-(4-((4-(4-hydroxypiperidin-1-yl)phenyl)amino)-5-oxo-5,6-dihydropyrimido[4,5-d]pyridazin-2-yl)piperidin-4-yl)acetonitrile]
proliferation [1]: decreases proliferation | dose limiting adverse events [2, 10]: No dose limiting adverse events | tolerability [2, 10]: safe and well tolerated | MTD ([2]; dose escalation continues): has not been reached | grade of most drug-related adverse events ([2]; e.g. headache, fatigue): Gr 1/2 | Dose dependence of exposure (Cmax, AUC), in words ([3]; 20, 40 and 80 mg once daily): dose-dependent Cmax and AUC; also recorded: dose-dependent exposure | Inter- and intra-individual variability of PK, in words ([3]; 20, 40 and 80 mg once daily): low inter- and intra-individual variability; also recorded: minimum individual variability and accumulation | Tmax [3, 11]: 2 to 4 h | half-life [3, 11]: 10 to 14 h | T cell (CD3+) infiltration into all layers of the skin ([4]; 40 and 80 mg, Day 29): reduced | Myeloid DC (CD11c+) infiltration into all layers of the skin ([4]; 40 and 80 mg, as early as Day 15): reduced | cutaneous biomarkers (cellular infiltrates, immune and hyperplasia markers) ([4]; particularly in the mid and high dose): improvements in epidermal hyperplasia and cellular infiltrates observed as early as Day 15; also recorded: down regulates inflammatory pathways; also recorded: reversal of cutaneous biomarkers of inflammation | total skin thickness ([4]; skin biopsies, 20, 40 and 80 mg): Reductions in total skin thickness can be observed as early as Day 15 | inhibition of JAK/STAT pathway [5]: strong inhibition | reduction in target lesions ([6]; 3 months, a FL patient (Lugano, 6 prior lines)): About 50% | response in a peripheral T-Cell lymphoma patient ([6]; after 2 months (Lugano, 2 prior lines)): stable disease and reduction of pruritus | CRP, IL-18, MIP1β, VCAM-1, TNFR2 (serum markers of inflammation) ([6]; all doses): Robust reduction | efficacy in NHL patients (in words) ([6]; in vivo): Encouraging preliminary evidence of efficacy | solubility ([7]; aqueous buffer, pH 4.5 Acetate Buffer, initial pH 4.50, end pH 4.56): 2.9 µg/mL (≈ 6.3 µM) | solubility ([7]; aqueous buffer, pH 5.5 Acetate Buffer, initial pH 5.52, end pH 5.12): 1 µg/mL (≈ 2.17 µM) | solubility ([7]; aqueous buffer, pH 6.8 Phosphate Buffer, initial pH 6.80, end pH 6.86): 2.7 µg/mL (≈ 5.86 µM) | solubility ([7]; aqueous buffer, pH 7.5 Phosphate Buffer, initial pH 7.55, end pH 6.96): 0.7 µg/mL (≈ 1.52 µM) | solubility ([7]; simulated gastric fluid, 0.1N HCl, end pH 1.23): 10800 µg/mL (≈ 23500 µM) | solubility ([7]; Water, end pH 2.62): 941 µg/mL (≈ 2040 µM) | tumor growth [8]: suppresses tumor growth | solubility ([9]; EtOH): 5000 µg/mL (≈ 10800 µM) | solubility ([9]; IPA): 462 µg/mL (≈ 1000 µM) | solubility ([9]; MeOH): 4440 µg/mL (≈ 9630 µM)
